Assay results as given in ChEMBL document CHEMBL4270521, “Design, synthesis and biological evaluation of a series of novel 2-benzamide-4-(6-oxy-N-methyl-1-naphthamide)-pyridine derivatives as potent fibroblast growth factor receptor (FGFR) inhibitors” (Eur J Med Chem, 2018).

Legend:
[1] = target: Fibroblast growth factor receptor 1 (Homo sapiens, UniProt P11362); assay: Inhibition of recombinant FGFR1 (unknown origin) using poly (Glu, Tyr) 4:1 as substrate after 60 mins by ELISA based spectrophotometric method
[2] = system: KG-1; assay: Antiproliferative activity against human KG1 cells expressing FGFR1 after 72 hrs; assay type: functional, cell-based; settings: KG-1, 72 h
[3] = Antiproliferative activity against human UM-UC-14 cells expressing FGFR3 after 72 hrs; assay type: functional, cell-based; settings: UMUC14, 72 h
[4] = Volume of distribution at steady state in Sprague-Dawley rat at 1 mg/kg, iv by LC-MS/MS analysis; assay type: ADME, organism-based; settings: in vivo, read-out: Vdss
[5] = Half life in Sprague-Dawley rat at 3 mg/kg, po administered via gavage by LC-MS/MS analysis; assay type: ADME, organism-based; settings: in vivo
[6] = Clearance in Sprague-Dawley rat at 1 mg/kg, iv by LC-MS/MS analysis; assay type: ADME, organism-based; settings: in vivo
[7] = AUCinfinity in Sprague-Dawley rat at 1 mg/kg, iv by LC-MS/MS analysis; assay type: ADME, organism-based; set-up: dose 1 mg/kg, route intravenous, time infinity; settings: in vivo
[8] = Oral bioavailability in Sprague-Dawley rat at 3 mg/kg administered via gavage by LC-MS/MS analysis; assay type: ADME, organism-based; settings: in vivo
[9] = Half life in Sprague-Dawley rat at 1 mg/kg, iv by LC-MS/MS analysis; assay type: ADME, organism-based; settings: in vivo
[10] = AUCinfinity in Sprague-Dawley rat at 3 mg/kg, po administered via gavage by LC-MS/MS analysis; assay type: ADME, organism-based; set-up: dose 3 mg/kg, time infinity, route oral; settings: in vivo
[11] = AUClast in Sprague-Dawley rat at 3 mg/kg, po administered via gavage by LC-MS/MS analysis; assay type: ADME, organism-based; set-up: dose 3 mg/kg, time 0 - last, route oral; settings: in vivo
[12] = system: NCI-H1581; assay: Antiproliferative activity against human NCI-H1581 cells expressing FGFR1 after 72 hrs; assay type: functional, cell-based; settings: NCI-H1581, 72 h
[13] = AUClast in Sprague-Dawley rat at 1 mg/kg, iv by LC-MS/MS analysis; assay type: ADME, organism-based; set-up: dose 1 mg/kg, time 0 - last, route intravenous; settings: in vivo
[14] = system: BaF3; assay: Antiproliferative activity against mouse BAF3 cells expressing VEGFR2 after 72 hrs; assay type: functional, cell-based; settings: BaF3, 72 h
[15] = target: Vascular endothelial growth factor receptor 2 (Homo sapiens, UniProt P35968); assay: Inhibition of recombinant VEGFR2 (unknown origin) using poly (Glu, Tyr) 4:1 as substrate after 60 mins by ELISA based spectrophotometric method
[16] = system: RT-112; assay: Antiproliferative activity against human RT112 cells expressing FGFR3 after 72 hrs; assay type: functional, cell-based; settings: RT-112, 72 h
[17] = target: Fibroblast growth factor receptor 2 (Homo sapiens, UniProt P21802); assay: Inhibition of recombinant FGFR2 (unknown origin) using poly (Glu, Tyr) 4:1 as substrate after 60 mins by ELISA based spectrophotometric method
[18] = target: T1, Fibroblast growth factor receptor 3 (Homo sapiens, UniProt P22607); assay: Inhibition of recombinant FGFR3 (unknown origin) using poly (Glu, Tyr) 4:1 as substrate after 60 mins by ELISA based spectrophotometric method
[19] = system: SNU-16; assay: Antiproliferative activity against human SNU16 cells expressing FGFR2 after 72 hrs; assay type: functional, cell-based; settings: SNU-16, 72 h
[20] = target: T1, Fibroblast growth factor receptor 3; assay: Inhibition of FGFR3 (unknown origin)
[21] = Aqueous solubility of the compound; assay type: physicochemical; settings: buffer
[22] = system: SNU-16; assay: Antitumor activity against human SNU16 cells xenografted in nude mouse assessed as tumor growth inhibition at 10 mg/kg, ip qd administered for 21 consecutive days and measured twice per week relative to control; assay type: functional; settings: SNU-16, ip, read-out: TGI
[23] = system: SNU-16; assay: Antitumor activity against human SNU16 cells xenografted in nude mouse assessed as tumor growth inhibition at 50 mg/kg, ip qd administered for 21 consecutive days and measured twice per week relative to control; assay type: functional; settings: SNU-16, ip, read-out: TGI
[24] = system: Mus musculus; assay: Toxicity in nude mouse xenografted with human SNU16 cells assessed as body weight loss at 10 to 50 mg/kg, ip qd administered for 21 consecutive days and measured twice per week; assay type: organism-based; settings: in vivo
[25] = system: SNU-16; settings: Homo sapiens
Description: Antitumor activity against human SNU16 cells xenografted in nude mouse assessed as tumor growth inhibition administered ip qd for 21 consecutive days and measured twice per week

Fibroblast growth factor receptor 1, sequence (P11362 whole entry): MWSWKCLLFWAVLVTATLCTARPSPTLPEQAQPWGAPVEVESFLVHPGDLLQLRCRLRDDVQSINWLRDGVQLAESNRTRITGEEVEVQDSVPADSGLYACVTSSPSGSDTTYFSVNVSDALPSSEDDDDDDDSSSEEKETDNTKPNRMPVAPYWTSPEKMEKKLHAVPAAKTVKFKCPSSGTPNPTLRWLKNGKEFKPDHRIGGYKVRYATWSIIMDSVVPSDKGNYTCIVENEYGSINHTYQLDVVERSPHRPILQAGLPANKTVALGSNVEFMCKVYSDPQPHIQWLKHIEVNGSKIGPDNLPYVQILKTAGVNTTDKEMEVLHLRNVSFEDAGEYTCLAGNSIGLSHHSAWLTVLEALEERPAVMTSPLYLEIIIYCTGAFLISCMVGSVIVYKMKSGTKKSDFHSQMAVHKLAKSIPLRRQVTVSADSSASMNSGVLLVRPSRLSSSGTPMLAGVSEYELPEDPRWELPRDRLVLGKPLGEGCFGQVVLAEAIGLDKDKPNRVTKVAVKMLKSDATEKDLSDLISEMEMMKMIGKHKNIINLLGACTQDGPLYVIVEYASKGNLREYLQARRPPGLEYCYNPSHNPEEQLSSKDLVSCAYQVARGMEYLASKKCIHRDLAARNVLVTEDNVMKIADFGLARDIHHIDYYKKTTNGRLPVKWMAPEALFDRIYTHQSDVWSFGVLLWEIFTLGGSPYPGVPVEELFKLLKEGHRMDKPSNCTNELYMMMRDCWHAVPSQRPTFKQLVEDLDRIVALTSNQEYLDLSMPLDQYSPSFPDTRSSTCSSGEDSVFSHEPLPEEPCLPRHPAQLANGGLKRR
T1 sequence (P22607 whole entry): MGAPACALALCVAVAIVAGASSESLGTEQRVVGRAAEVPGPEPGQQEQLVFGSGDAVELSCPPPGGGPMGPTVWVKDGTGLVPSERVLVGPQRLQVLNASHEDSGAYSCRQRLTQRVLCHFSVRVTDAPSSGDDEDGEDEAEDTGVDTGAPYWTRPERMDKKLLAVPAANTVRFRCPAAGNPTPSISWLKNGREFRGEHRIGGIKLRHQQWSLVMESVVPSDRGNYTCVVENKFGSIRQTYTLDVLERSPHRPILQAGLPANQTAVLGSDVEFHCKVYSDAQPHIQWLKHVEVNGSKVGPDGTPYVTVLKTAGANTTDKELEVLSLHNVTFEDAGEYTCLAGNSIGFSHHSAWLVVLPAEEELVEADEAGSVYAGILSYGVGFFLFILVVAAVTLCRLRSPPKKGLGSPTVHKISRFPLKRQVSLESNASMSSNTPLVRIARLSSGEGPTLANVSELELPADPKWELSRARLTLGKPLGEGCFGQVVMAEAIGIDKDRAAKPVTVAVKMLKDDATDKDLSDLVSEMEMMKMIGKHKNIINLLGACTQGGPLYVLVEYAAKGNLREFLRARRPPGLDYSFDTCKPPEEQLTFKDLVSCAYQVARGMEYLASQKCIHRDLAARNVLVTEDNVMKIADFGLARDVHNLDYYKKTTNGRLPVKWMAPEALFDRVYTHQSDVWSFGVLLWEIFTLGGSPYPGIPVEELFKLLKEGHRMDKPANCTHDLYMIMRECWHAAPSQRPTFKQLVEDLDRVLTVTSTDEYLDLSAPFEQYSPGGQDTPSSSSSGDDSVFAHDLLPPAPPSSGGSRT
Vascular endothelial growth factor receptor 2, sequence (P35968 whole entry): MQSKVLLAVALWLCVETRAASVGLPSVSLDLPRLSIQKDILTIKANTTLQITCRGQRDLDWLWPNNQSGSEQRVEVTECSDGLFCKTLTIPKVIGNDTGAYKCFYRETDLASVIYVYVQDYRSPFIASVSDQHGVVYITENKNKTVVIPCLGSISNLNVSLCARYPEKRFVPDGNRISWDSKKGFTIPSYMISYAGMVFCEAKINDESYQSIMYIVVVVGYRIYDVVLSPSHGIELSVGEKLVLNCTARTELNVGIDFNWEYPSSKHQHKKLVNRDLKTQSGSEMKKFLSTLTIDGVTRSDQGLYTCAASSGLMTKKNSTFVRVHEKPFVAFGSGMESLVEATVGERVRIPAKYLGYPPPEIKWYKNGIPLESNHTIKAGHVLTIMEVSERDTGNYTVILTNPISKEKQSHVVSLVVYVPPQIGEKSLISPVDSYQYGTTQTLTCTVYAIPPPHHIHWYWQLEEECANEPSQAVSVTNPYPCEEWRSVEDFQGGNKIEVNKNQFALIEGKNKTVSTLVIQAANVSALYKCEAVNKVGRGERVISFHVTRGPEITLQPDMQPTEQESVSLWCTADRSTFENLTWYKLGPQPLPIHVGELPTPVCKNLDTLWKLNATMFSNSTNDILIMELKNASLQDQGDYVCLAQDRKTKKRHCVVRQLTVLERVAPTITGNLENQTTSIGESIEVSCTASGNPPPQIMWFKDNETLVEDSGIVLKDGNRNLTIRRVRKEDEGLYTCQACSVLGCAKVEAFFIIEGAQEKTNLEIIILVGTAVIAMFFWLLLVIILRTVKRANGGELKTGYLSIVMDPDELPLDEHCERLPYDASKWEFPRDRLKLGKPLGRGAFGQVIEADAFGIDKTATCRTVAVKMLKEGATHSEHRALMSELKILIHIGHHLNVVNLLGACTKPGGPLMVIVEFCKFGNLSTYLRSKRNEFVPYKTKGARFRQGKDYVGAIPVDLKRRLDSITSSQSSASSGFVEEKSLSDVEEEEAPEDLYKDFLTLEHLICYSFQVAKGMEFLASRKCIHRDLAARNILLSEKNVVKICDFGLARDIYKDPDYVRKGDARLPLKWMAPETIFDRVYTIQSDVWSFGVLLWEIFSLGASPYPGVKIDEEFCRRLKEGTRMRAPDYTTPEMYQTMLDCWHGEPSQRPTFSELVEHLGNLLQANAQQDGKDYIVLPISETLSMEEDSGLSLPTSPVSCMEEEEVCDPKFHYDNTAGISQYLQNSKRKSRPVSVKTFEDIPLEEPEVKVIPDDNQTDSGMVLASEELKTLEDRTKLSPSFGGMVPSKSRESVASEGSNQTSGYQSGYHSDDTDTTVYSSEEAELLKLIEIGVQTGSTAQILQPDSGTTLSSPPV
Fibroblast growth factor receptor 2, sequence (P21802 whole entry): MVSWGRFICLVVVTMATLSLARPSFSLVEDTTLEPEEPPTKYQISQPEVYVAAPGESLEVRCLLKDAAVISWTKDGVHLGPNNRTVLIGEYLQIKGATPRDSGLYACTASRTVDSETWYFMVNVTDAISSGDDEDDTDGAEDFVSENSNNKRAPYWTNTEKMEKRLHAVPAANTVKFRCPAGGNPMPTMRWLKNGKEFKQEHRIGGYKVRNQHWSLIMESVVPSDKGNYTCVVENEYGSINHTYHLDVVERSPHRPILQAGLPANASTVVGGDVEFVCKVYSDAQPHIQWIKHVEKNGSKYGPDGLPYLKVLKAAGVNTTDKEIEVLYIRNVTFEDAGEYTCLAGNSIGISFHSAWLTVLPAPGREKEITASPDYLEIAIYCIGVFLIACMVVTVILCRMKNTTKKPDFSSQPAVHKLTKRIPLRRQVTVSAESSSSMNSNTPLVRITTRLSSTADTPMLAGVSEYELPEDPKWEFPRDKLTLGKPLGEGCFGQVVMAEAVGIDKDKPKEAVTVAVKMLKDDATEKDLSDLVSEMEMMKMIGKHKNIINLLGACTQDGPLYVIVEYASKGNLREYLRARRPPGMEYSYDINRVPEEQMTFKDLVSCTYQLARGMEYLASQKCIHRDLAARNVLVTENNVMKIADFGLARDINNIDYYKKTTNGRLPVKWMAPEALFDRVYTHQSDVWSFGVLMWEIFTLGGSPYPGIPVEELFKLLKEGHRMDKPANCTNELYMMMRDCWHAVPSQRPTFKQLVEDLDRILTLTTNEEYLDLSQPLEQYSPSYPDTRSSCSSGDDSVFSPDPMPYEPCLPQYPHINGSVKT

SMILES	IC50 [1]	IC50 [2]	further results
CNC(=O)c1cccc2cc(Oc3ccnc(NC(=O)c4ccc(N5C[C@@H](C)N[C@@H](C)C5)cc4F)c3)ccc12	> 1000 nM		
CNC(=O)c1cccc2cc(Oc3ccnc(NC(=O)c4ccc(C5CCNCC5)cc4)c3)ccc12	1.6 nM	72.2 nM	
CNC(=O)c1cccc2cc(Oc3ccnc(NC(=O)c4ccc(N5CCN(CCO)CC5)cc4)c3)ccc12	1.9 nM	5.8 nM	
CNC(=O)c1cccc2cc(Oc3ccnc(NC(=O)c4ccc(OCCN5CC(F)C5)cc4)c3)ccc12	3.6 nM	5.1 nM	
CNC(=O)c1cccc2cc(Oc3ccnc(NC(=O)c4ccc(OCC5(N)CC5)cc4)c3)ccc12	7.4 nM	54.5 nM	
CNC(=O)c1cccc2cc(Oc3ccnc(NC(=O)c4ccc(N5CC(C)OC(C)C5)cc4)c3)ccc12 (centres undefined)	1.9 nM	154 nM	
CNC(=O)c1cccc2cc(Oc3ccnc(NC(=O)c4ccc(N5CCN(C)CC5)cc4)c3)ccc12 [listing 1 of 2 here]		< 0.5 nM	IC50 [3]: 1.7 nM; Vd [4]: 16.7 L/kg; half-life [5]: 1.85 h; clearance [6]: 346 mL/min/kg; AUC(0-inf) [7]: 49 ng·h/mL; bioavailability [8]: 14.9%; half-life [9]: 0.897 h; AUC(0-inf) [10]: 22.7 ng·h/mL; AUC(0-t) [11]: 21.4 ng·h/mL; IC50 [12]: 22.3 nM; AUC(0-t) [13]: 47.9 ng·h/mL; IC50 [14]: < 1.5 nM; IC50 [15]: 2.9 nM; IC50 [16]: 52.6 nM; IC50 [17]: 4.5 nM; IC50 [18]: 10.6 nM; IC50 [19]: < 0.5 nM
CNC(=O)c1cccc2cc(Oc3ccnc(NC(=O)c4ccc(OCCN5CC(F)(F)C5)cc4)c3)ccc12	6.1 nM	< 4.1 nM	
CNC(=O)c1cccc2cc(Oc3ccnc(NC(=O)c4ccc(N5C[C@@H](C)N[C@@H](C)C5)cc4C)c3)ccc12	12.9 nM	> 1000 nM	
CNC(=O)c1cccc2cc(Oc3ccnc(NC(=O)c4ccc(N5C[C@@H](C)N[C@@H](C)C5)cc4)c3)ccc12	2.1 nM	14.9 nM	
CNC(=O)c1cccc2cc(Oc3ccnc(NC(=O)c4ccc(N5C[C@@H](C)N[C@@H](C)C5)cc4OC)c3)ccc12	285 nM		
CNC(=O)c1cccc2cc(Oc3ccnc4cc(OCC5(N)CC5)c(OC)cc34)ccc12 [LUCITANIB]			IC50 [20]: 238 nM
CCNC(=O)Nc1ccc(Oc2ccnc(NC(=O)c3ccc(N4C[C@@H](C)N[C@@H](C)C4)cc3)c2)c(OC)c1	36.1 nM	548 nM	
CCNC(=O)N1CCCc2cc(Oc3ccnc(NC(=O)c4ccc(N5C[C@@H](C)N[C@@H](C)C5)cc4)c3)ccc21	132 nM	118 nM	
CNC(=O)c1cccc2cc(Oc3ccnc(NC(=O)c4ccc(N5CCNC(C)C5)cc4)c3)ccc12 (centres undefined)	2 nM	< 4.1 nM	
CNC(=O)c1cccc2cc(Oc3ccnc(NC(=O)c4ccc(C5CCN(CCO)CC5)cc4)c3)ccc12	1.2 nM	< 4.1 nM	
COc1cc(OC)c(F)c(COc2ccc(NC(=O)c3ccc(N4C[C@@H](C)N[C@@H](C)C4)cc3)nc2)c1F	22.2 nM	116 nM	

SMILES	IC50 [1]	IC50 [2]	further results
COC(=O)c1cccc2cc(Oc3ccnc(NC(=O)c4ccc(N5C[C@@H](C)N[C@@H](C)C5)cc4)c3)ccc12	4.6 nM	159 nM	
CC(Oc1ccc(NC(=O)c2ccc(N3C[C@@H](C)N[C@@H](C)C3)cc2)nc1)c1c(Cl)cncc1Cl (some centres undefined)	> 1000 nM		
CNC(=O)c1cccc2cc(Oc3ccnc(NC(=O)c4ccc(N5CCN(C)CC5)cc4)c3)ccc12.Cl.Cl			solubility [21]: Soluble; inhibition in vivo at 10 mg/kg [22]: 25%; inhibition in vivo at 50 mg/kg [23]: 81%; Activity [24]: Non-Toxic
C=CC(=O)Nc1ccc(C(=O)Nc2cc(Oc3ccc4c(C(=O)NC)cccc4c3)ccn2)cc1	12.8 nM	369 nM	
COc1cc(CCc2cc(NC(=O)c3ccc(N4C[C@@H](C)N[C@@H](C)C4)cc3)n[nH]2)cc(OC)c1 [FEXAGRATINIB]		1.9 to 8.7 nM	IC50 [3]: 26.9 nM; IC50 [12]: 40 nM; IC50 [14]: 222 nM; IC50 [16]: 83.8 nM; IC50 [19]: 6.2 nM
CNC(=O)c1cccc2cc(Oc3ccnc(NC(=O)c4cnc(N5C[C@@H](C)N[C@@H](C)C5)nc4)c3)ccc12	10.2 nM	30.3 nM	
CNC(=O)c1cccc2cc(Oc3ccnc(NC(=O)c4coc(N5CCN(C)CC5)n4)c3)ccc12	2.8 nM		
CNC(=O)c1cccc2cc(Oc3ccnc(NC(=O)c4ccc(N5CCOCC5)cc4)c3)ccc12	1.2 nM	9.3 nM	
CNC(=O)c1cccc2cc(Oc3ccnc(NC(=O)c4ccc(OCCN5CCCC5)cc4)c3)ccc12	4.1 nM	< 4.1 nM	
CNC(=O)c1cccc2cc(Oc3ccnc(NC(=O)c4cnn(CCO)c4)c3)ccc12	23.5 nM	278 nM	
CNC(=O)c1cccc2cc(Oc3ccnc(NC(=O)c4ccc(N5CCN(C)CC5)cc4)c3)ccc12 [listing 2 of 2 here]			TGI [25]: Dose-dependent effect
CNC(=O)c1cccc2cc(Oc3ccnc(NC(=O)c4ccc(NCC5(O)CCOCC5)cc4)c3)ccc12	6.2 nM	< 4.1 nM	
COc1cc(OC)c(Cl)c(CCOc2ccnc(NC(=O)c3ccc(N4C[C@@H](C)N[C@@H](C)C4)cc3)c2)c1Cl	> 1000 nM		
COc1cc(CCOc2ccnc(NC(=O)c3ccc(N4C[C@@H](C)N[C@@H](C)C4)cc3)c2)cc(OC)c1	> 1000 nM		
CCNC(=O)Nc1cccc2cc(Oc3ccnc(NC(=O)c4ccc(N5C[C@@H](C)N[C@@H](C)C5)cc4)c3)ccc12	67.5 nM	504 nM	
CNC(=O)c1cccc2cc(Oc3ccnc(NC(=O)c4csc(N5CCN(C)CC5)n4)c3)ccc12	7.6 nM		
